Assay results as given in patent US7384734B2, “Compositions and methods for determining the susceptibility of a pathogenic virus to protease inhibitors” (Monogram Biosciences, Inc., priority 2002, dated 2008).

Tested on: HIV-1 from patient plasma samples
Test: PHENOSENSE HIV phenotypic drug susceptibility assay (fold change in IC50 versus NL4-3 reference strain)
Type: cell-based
Excerpt: A “fold change” is a numeric comparison of the drug susceptibility of a patient virus and a drug-sensitive reference virus. It is the ratio of the Patient IC50 to the drug-sensitive reference IC50, i.e., Patient IC50/Reference IC50=Fold Change (“FC”). […] A fold change less than 1 indicates the patient virus is more sensitive than the drug-sensitive reference virus. […] A fold change less than the clinical cutoff value means the patient virus is sensitive to that drug.
In one embodiment, the phenotypic analysis is performed using PHENOSENSE™ (ViroLogic Inc., South San Francisco, Calif.). See Petropoulos et al., 2000, Antimicrob. Agents Chemother. 44:920-928; U.S. Pat. Nos. 5,837,464 and 6,242,187. PHENOSENSE™ is a phenotypic assay that achieves the benefits of phenotypic testing and overcomes the drawbacks of previous assays.
A resistance test vector (“RTV”) can then be constructed by incorporating the amplified viral gene sequences into a replication defective viral vector by using any method known in the art of incorporating gene sequences into a vector. In one embodiment, restrictions enzymes and conventional cloning methods are used. See Maniatis et al., 1989, Molecular Cloning: A Laboratory Manual, Cold Spring Harbor Laboratory, N.Y. and Ausubel et al., 1989, Current Protocols in Molecular Biology, Greene Publishing Associates and Wiley Interscience, N.Y. In some embodiments, ApaI and PinAI restriction enzymes are used. Preferably, the replication defective viral vector is the indicator gene viral vector (“IGVV”). In some embodiments, the viral vector contains a means for detecting replication of the RTV. Preferably, the viral vector contains a luciferase expression cassette.
The assay can be performed by first co-transfecting host cells with RTV DNA and a plasmid that expresses the envelope proteins of another retrovirus, for example, amphotropic murine leukemia virus (MLV). Following transfection, virus particles can be harvested and used to infect fresh target cells. The completion of a single round of viral replication can be detected by the means for detecting replication contained in the vector. In one embodiment, the completion of a single round of viral replication results in the production of luciferase. Serial concentrations of anti-viral agents can be added at either the transfection step or the infection step.
Susceptibility to the anti-viral agent can be measured by comparing the replication of the vector in the presence and absence of the anti-viral agent. For example, susceptibility to the anti-viral agent can be measured by comparing the luciferase activity in the presence and absence of the anti-viral agent. Susceptible viruses would produce low levels of luciferase activity in the presence of anti-viral agents, whereas viruses with reduced susceptibility would produce higher levels of luciferase activity.
The phenotypic assay was conducted using the PHENOSENSE™ (Virologic, South San Francisco, Calif.) HIV assay (Petropoulos et al., 2000, Antimicrob. Agents Chemother. 44:920-928; U.S. Pat. Nos. 5,837,464 and 6,242,187). Plasma samples were collected from HIV-1-infected patients. Repeat samples from the same patient were removed to prevent possible bias resulting from unique combinations of mutations.
The genotype data was obtained by sequencing the protease of the HIV-1 present in each patient's sample and determining the sequence changes with respect to the sequence of the NL4-3 (GenBank Accession No. AF324493) HIV. The amino sequence for the NL4-3 protease is provided in SEQ. ID. No. 1 (FIG. 12A) and the nucleic acid sequence for the NL4-3 protease gene is provided in SEQ. ID. No. 2 (FIG. 12B).

[1] = genotype group: 32, 46, 47, 54, n=4
[2] = genotype group: 32, 47, 54, 84, n=5
[3] = genotype group: 32, 47, 54, n=17
[4] = genotype group: 46 (M46I or L), 54, n=16
[5] = genotype group: 46, 54, 84, n=29
[6] = genotype group: 47, 54, 84, n=3
[7] = genotype group: 54 (I54L or M only), n=9
[8] = genotype group: not containing any tested mutation, n=1096
[9] = genotype group: protease mutation 32, n=26
[10] = genotype group: wild-type (all primary positions), n=623

SMILES | Median FC [1] | Median FC [2] | Median FC [3] | Median FC (genotype group: 32, 47, n=23) | Median FC (genotype group: 32, 84, n=3) | Median FC [4] | Median FC [5] | Median FC [6] | Median FC (genotype group: 47, 54, n=3) | Median FC (genotype group: 47, 84, n=4) | Median FC (genotype group: 50, n=42) | Median FC [7] | Median FC (genotype group: 54, 84, n=22) | Median FC (genotype group: 84, n=247) | Median FC [8] | Median FC [9] | Median FC [10] | median FC in each group (each group carrying APV resistance mutations (Table 9)) [fold] | Median FC (genotype group: 32, 46, 47, 54, 84, n=6) | Median FC (genotype group: 47, n=8)
Cc1cccc(C)c1OCC(=O)N[C@@H](Cc1ccccc1)[C@@H](O)C[C@H](Cc1ccccc1)NC(=O)[C@H](C(C)C)N1CCCNC1=O [LPV, lopinavir] | 208 | 227 | 146 | 7.5 | 124 | 138 | 30 | 20 | 88 | 28 | 54 | 160 | 93 | 7.1 | 2.1 | 12 | 0.6 | – | – | –
CC(C)CN(C[C@@H](O)[C@H](Cc1ccccc1)NC(=O)O[C@H]1CCOC1)S(=O)(=O)c1ccc(N)cc1 [APV, amprenavir] | 130 | 130 | 40 | 12 | 51 | 84 | 47 | 24 | 42 | 12 | 20 | 22 | 67 | 11 | 1.6 | 9.5 | 0.6 | ≥ 9.5 | 130 | 26
